From publication PMC11239005, “Preclinical studies of RA475, a guanidine-substituted spirocyclic candidate RPN13/ADRM1 inhibitor for treatment of ovarian cancer” (PLOS ONE, 2024)
≈ marks a conversion by molar mass, not a printed value. Like-named read-outs stand apart in the source and are kept apart here.

What was measured:
[1] = Kinetic aqueous solubility in PBS pH 7.4; type: physicochemical; conditions: 25 °C, pH 7.4, aqueous buffer, kinetic from dmso stock
Method: Kinetic solubility assays were performed according to Enamine’s aqueous solubility SOP. Briefly, using a 20 mM stock solution of the compound in 100% DMSO dilutions were prepared to a theoretical concentration of 400 μM in duplicates in phosphate-buffered saline pH 7.4 (138 mM NaCl, 2.7 mM KCl, 10 mM K-phosphate) with 2% final DMSO. The experimental compound dilutions in PBS were further allowed to equilibrate at 25°C on a thermostatic shaker for two hours and then filtered through HTS filter plates using a vacuum manifold. The filtrates of test compounds were diluted 2-fold with acetonitrile with 2% DMSO before measuring. In parallel, using a 20 mM stock solution of the compound in 100% DMSO dilutions were prepared to theoretical concentrations of 0 μM (blank), 10 μM, 25 μM, 50 μM, 100 μM, and 200 μM in 50% acetonitrile/PBS with 2% final DMSO to generate calibration curves. Ondansetron was used as a reference compound to control proper assay performance. 200 μL of each sample was transferred to a 96-well plate and measured in the 230–550 nm range with a 5 nm step. The concentrations of compounds in PBS filtrate are calculated using a dedicated Microsoft Excel calculation script. Proper absorbance wavelengths for calculations are selected for each compound manually based on absorbance maximums (absolute absorbance unit values for the minimum and maximum concentration points within the 0–3 OD range). Each final dataset is visually evaluated by the operator, and goodness of fit (R^2) is calculated for each calibration curve.

[2] = tested on: OVCAR3 cells; test: MTT cytotoxicity assay, OVCAR3; type: cell-based, human; conditions: for IC50: Homo sapiens, OVCAR-3, OVCAR3, 72 h
Method: (§1) All cell lines were obtained from the American Type Culture Collection (ATCC) and cultured in the specified medium supplemented with 10% fetal bovine serum, 100 IU/mL penicillin, and 100 μg/mL streptomycin at 37°C in a humidified 5% CO2/95% air incubator. Synthesis of new compounds is described in S1 File, and >95% purity of RA475, Up284 and its analogs were confirmed by NMR and MS. To assess drug cytotoxicity, cells were seeded at 2,500 cells/well (10,000 cells/well for MM lines) in 100 μL medium in 96-well plate as triplicates and after 24 h treated with compounds for a further 72 h. To assess cytotoxicity, the cells were incubated for 2 h at 37°C according to the manufacturer’s protocol with the Thiazolyl Blue Tetrazolium Bromide (20 μL/well of 5 mg/mL stock solution in water) (Sigma, M5655) and A570 measured using a Benchmark Plus microplate spectrophotometer (BIO-RAD). IC50 was estimated using Graphpad Prism 7 software.
To study the effect of RA475 in combination with approved therapeutics (DNA damaging agents or radiation) an MTT assay was performed using various concentrations of both drugs. Briefly PEA1 and OVCAR3 cells were each treated with drug combination (RA475 plus cisplatin) for 72 h in a checker board analysis and cell viability was measured using MTT assay. The data were analyzed and plotted using the Synergy Finder web application.

[3] = tested on: TSH1; test: MTT cytotoxicity assay, TSH1; type: cell-based; conditions: TSH1, 72 h
Method: as §1

[4] = tested on: MC38; test: MTT cytotoxicity assay, MC38; type: cell-based; conditions: Mus musculus, MC-38, MC38, 72 h
Method: as §1

[5] = Tissue distribution in CD1 mice; type: in vivo, mouse; conditions: 24 h; for Concentration in brain: one IV dose 40 mg/kg
Method: For the stability studies and biodistribution studies, plasma or tissue homogenate (20 μL) was extracted with 100 μL of acetonitrile containing the internal standard RA413S (a structural analogue) at 10 ng/mL. Tissue homogenates were prepared at a concentration of 200 mg/mL in PBS. After vortex-mixing and centrifuging for 5 min at 2500 xg, 10 μL of the supernatant was injected into LC-MS/MS system. […] Mobile phase A was water containing 0.1% formic acid, and mobile phase B was acetonitrile containing 0.1% formic acid. The gradient started with mobile phase B at 20% and was held at 20% for 0.5 minutes with a flow rate of 0.3 mL/min, then increased to 100% over 0.5 minutes and held for 2.0 minutes, and finally returned back to 20% mobile phase B and allowed to equilibrate until 4.1minutes. An AB Sciex 5500 triple quadrupole mass spectrometer operated in positive electrospray ionization mode was used for the detection of RA475. The lower limit of quantitation (LLOQ) in plasma was 10 ng/mL.
In a separate experiment to assess drug distribution, CD1 mice were injected with one dose of RA475 (40 mg/kg, IV) and tissues collected after 4 h and 24 h. RA475 levels were analyzed in all major tissues (brain, colon, heart, kidney, liver, lung and spleen) by LC-MS/MS.
Fig 5 Tissue distribution of RA475 and Up284 in mice. Female CD1 mice (n = 3/drug) were treated with one IV dose of A) RA475 (40mg/kg) or B) Up284 (40mg/Kg) and euthanized after 24 h with collection of plasma and tissues including brain, colon, heart, kidney, liver, lung and spleen. RA475 and Up284 concentrations in tissue samples were analyzed by LC-MS/MS. TEXT PRINTED IN THE PICTURE: (A) RA475: RA475 Concentration (ng/mL or ng/g): 161 (Brain) | (B) Up284: Up284 Concentration (ng/mL or ng/g): 9214 (Brain)

[6] = tested on: cancer lines in S1B Table; test: MTT cytotoxicity, summary over cell line panel; type: cell-based; conditions: for IC50: 72 h, read-out: mean IC50 across all cancer lines in S1B Table
Method: as §1
Modifications of Up284 were sought to improve its drug-like properties without significant compromise of its activity in vivo, and several new compounds were synthesized (S1 File). Based on our prior studies of its pharmacophore, the central ring nitrogen was the most logical for addition of charged moieties, including RA475 and RA484. We also examined a change to either 3,4 spiro rings (RA477, RA479), or addition of 3-Fluoro substitutions (RA482) (S1 File). Our focus is developing iRPN13 to treat ovarian cancer resistant to standard of care drug regimens.
(§2) We elected to focus on RA475 and expanded the analysis in a larger panel of cell lines including those from common cancer types and normal tissues. […] This panel included another pair of cell lines isolated from another ovarian cancer patient with drug-resistant disease (PEO4) and pre-treatment (PEO1), and both were similarly sensitive to RA475.

[7] = tested on: CT26; test: MTT cytotoxicity assay, CT26; type: cell-based; conditions: Mus musculus, CT26, 72 h
Method: as §1

[8] = tested on: PEO4; test: MTT cytotoxicity assay, PEO4; type: cell-based; conditions: Homo sapiens, PEO4, 72 h
Method: as §1, §2

| solubility at 2 h [1] [µM] | Structure (SMILES) | solubility at 2 h ([1]; kinetic, 2% DMSO, 25°C, 2 h, read-out: PBS solubility, pH 7.4, Incubation 1) [µM] | solubility at 2 h ([1]; kinetic, 2% DMSO, 25°C, 2 h, read-out: PBS solubility, pH 7.4, Incubation 2) [µM] | solubility at 2 h ([1]; kinetic, 2% DMSO, 25°C, 2 h, read-out: PBS solubility, pH 7.4, Mean) [µM] | IC50 [2] [nM] | synergy with cisplatin for cytotoxicity ([2]; OVCAR3, checker board, 72 h, Synergy Finder) | IC50 [3] [nM] | IC50 [4] [nM] | tissue accumulation ([5]; 40 mg/kg IV) | Concentration in brain [5] | IC50 [6] [nM] | fold less potent than Up284 ([6]; overall, cell line panel) | IC50 [7] [nM] | IC50 [8] [nM] |
| --- | --- | --- | --- | --- | --- | --- | --- | --- | --- | --- | --- | --- | --- | --- |
| – | Cl.Cl.N#Cc1ccc(/C=C2/C(=O)/C(=C/c3ccc(C#N)cc3)C23CCN(C(=N)N)CC3)cc1 [RA475, 1,3-bis((E)-4-cyanobenzylidene)-2-oxo-7-azaspiro[3.5]nonane-7-carboximidamide dihydrochloride] | 136 | 138 | 137 | 190 | mild synergy | 114 | 446 | accumulated primarily in kidneys and liver | 161 ng/mL or ng/g | 420 | approximately 3 fold | 630 | 260 |
| 37 (≈ 13.5 µg/mL) | N#Cc1ccc(/C=C2/C(=O)/C(=C/c3ccc(C#N)cc3)C23CCNCC3)cc1 [Up284, reference compound] | – | – | – | 50 | – | 70 | 60 | – | 9214 ng/mL or ng/g | 120 | – | 50 | 61 |
